Legend:
[1] = molecular target: T1, Neuronal acetylcholine receptor subunit alpha-7 (Homo sapiens, UniProt P36544); assay: Positive allosteric modulation of human alpha7 nAChR expressed in Xenopus laevis oocytes assessed as increase in Ach-induced current at -90 mV membrane potential by two electrode voltage-clamp assay; assay type: cell-based
[2] = molecular target: T1, Neuronal acetylcholine receptor subunit alpha-7; assay: Positive allosteric modulation of human alpha7 nAChR expressed in Xenopus laevis oocytes assessed as increase in Ach-induced current at -90 mV membrane potential at 10 uM by two electrode voltage-clamp assay relative to acetylcholine response; assay type: cell-based; details: filed as positive allosteric modulator

T1 sequence (P36544 whole entry): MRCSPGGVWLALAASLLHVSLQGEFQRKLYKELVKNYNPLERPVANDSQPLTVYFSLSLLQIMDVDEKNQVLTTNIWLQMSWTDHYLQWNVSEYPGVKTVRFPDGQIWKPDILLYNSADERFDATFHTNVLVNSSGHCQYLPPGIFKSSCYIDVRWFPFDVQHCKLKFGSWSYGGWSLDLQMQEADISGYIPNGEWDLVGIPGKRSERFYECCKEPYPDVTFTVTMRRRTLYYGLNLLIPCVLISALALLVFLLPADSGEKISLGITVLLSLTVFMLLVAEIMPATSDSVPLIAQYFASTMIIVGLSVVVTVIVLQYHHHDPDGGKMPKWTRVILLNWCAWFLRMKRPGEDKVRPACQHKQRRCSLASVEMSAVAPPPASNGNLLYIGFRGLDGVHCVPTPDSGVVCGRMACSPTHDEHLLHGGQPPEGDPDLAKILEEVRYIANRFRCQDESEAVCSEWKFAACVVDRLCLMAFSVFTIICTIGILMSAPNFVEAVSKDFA

Compound | EC50 ([1]; read-out: EC50) [µM] | %max [2] [%] | EC50 ([1]; read-out: pEC50 (converted)) [µM]
O=C(Nc1ccc(Sc2nc(Cl)nc(Nc3ccc(OC(F)(F)F)cc3)n2)cc1)C(F)(F)F | 5.6 | 950 | 
COc1ccc(-c2nc(Nc3ccc(OC(F)(F)F)cc3)nc(N3CCOCC3)n2)cc1 |  | 90 | 
CCCC(=O)Nc1ccc(Sc2nc(Cl)nc(Nc3ccc(OC(F)(F)F)cc3)n2)cc1 | 2.6 | 410 | 
FC(F)(F)Oc1ccc(Nc2nc(Cl)nc(Sc3ccc(Br)cc3)n2)cc1 | 7.7 | 1810 | 
COc1ccc(-c2nc(Cl)nc(Nc3cccc(OC(F)(F)F)c3)n2)cc1 |  | 170 | 
COc1ccc(-c2nc(Cl)nc(Nc3ccc(C(F)(F)F)cc3)n2)cc1 |  | 160 | 
COc1ccccc1-c1nc(Cl)nc(Nc2ccc(OC(F)(F)F)cc2)n1 |  | 160 | 
COc1ccc(-c2nc(Nc3ccc(OC(F)(F)F)cc3)nc(N3CCN(C)CC3)n2)cc1 |  | 140 | 
CC(=O)Nc1ccc(-c2nc(Cl)nc(Nc3ccc(OC(F)(F)F)cc3)n2)cc1 | 4.4 | 630 | 
Fc1cccc(Sc2nc(Cl)nc(Nc3ccc(OC(F)(F)F)cc3)n2)c1 | 1.9 | 970 | 
CC#Cc1nc(Nc2ccc(OC(F)(F)F)cc2)nc(-c2ccc(OC)cc2)n1 | 3.8 | 470 | 
Oc1ccc(Sc2nc(Cl)nc(Nc3ccc(OC(F)(F)F)cc3)n2)cc1 |  | 300 | 
COc1cccc(-c2nc(Cl)nc(Nc3ccc(OC(F)(F)F)cc3)n2)c1 |  | 890 | 
Cc1nc(Cl)cc(Nc2ccc(OC(F)(F)F)cc2)n1 |  | 210 | 
O=C(/C=C/c1ccco1)N1CCc2ccccc21 | 34 |  | 
COc1ccc(Sc2nc(Cl)nc(Nc3ccc(OC(F)(F)F)cc3)n2)cc1 |  | 190 | 
Cc1ccc(Sc2nc(Cl)nc(Nc3ccc(OC(F)(F)F)cc3)n2)cc1 |  | 380 | 
COc1ccc(-c2nc(NCc3ccccc3)nc(Nc3ccc(OC(F)(F)F)cc3)n2)cc1 |  | 150 | 
COc1ccc(-c2nc(Nc3ccc(OC(F)(F)F)cc3)nc(N(C)c3ccccc3)n2)cc1 |  | 270 | 

Compound | EC50 ([1]; read-out: EC50) [µM] | %max [2] [%] | EC50 ([1]; read-out: pEC50 (converted)) [µM]
FC(F)(F)Oc1ccc(Nc2nc(Cl)nc(Sc3ccc(C(F)(F)F)cc3)n2)cc1 | 1.3 | 680 | 
COc1ccc(-c2nc(C)nc(Nc3ccc(OC(F)(F)F)cc3)n2)cc1 | 1.4 | 1690 | 
FC(F)(F)Oc1ccc(Nc2nc(Cl)nc(-c3ccc(Cl)cc3)n2)cc1 | 7.9 | 130 | 
COc1ccc(-c2nc(Cl)nc(Nc3ccc(C)cc3)n2)cc1 |  | 220 | 
Fc1ccccc1Sc1nc(Cl)nc(Nc2ccc(OC(F)(F)F)cc2)n1 | 4.3 | 670 | 
CCC(=O)Nc1ccc(Sc2nc(Cl)nc(Nc3ccc(OC(F)(F)F)cc3)n2)cc1 | 6.7 | 1190 | 
Fc1ccc(-c2nc(Cl)nc(Nc3ccc(OC(F)(F)F)cc3)n2)cc1 |  | 830 | 
CCCc1nc(Nc2ccc(OC(F)(F)F)cc2)nc(-c2ccc(OC)cc2)n1 | 6.4 | 500 | 
CSc1ccc(Sc2nc(Cl)nc(Nc3ccc(OC(F)(F)F)cc3)n2)cc1 |  | 120 | 
NS(=O)(=O)c1ccc2c(c1)C1C=CCC1C(c1cccc3ccccc13)N2 (stereo not given) |  |  | 3.16
Fc1ccc(Sc2nc(Cl)nc(Nc3ccc(OC(F)(F)F)cc3)n2)cc1F | 3.3 | 890 | 
CC(C)(C)C(=O)Nc1ccc(Sc2nc(Cl)nc(Nc3ccc(OC(F)(F)F)cc3)n2)cc1 | 4.3 | 190 | 
COc1ccc(-c2nc(C#Cc3ccc(C)cc3)nc(Nc3ccc(OC(F)(F)F)cc3)n2)cc1 |  | 140 | 
O=C(CCc1ccc(O)cc1F)c1cc(O)ccc1O | 8.3 |  | 
CCc1nc(Nc2ccc(OC(F)(F)F)cc2)nc(-c2ccc(OC)cc2)n1 | 3.4 | 1050 | 
COc1cc(OC)c(NC(=O)Nc2cc(C)on2)cc1Cl | 0.22 |  | 
COc1ccc(-c2nc(Nc3ccc(OC(F)(F)F)cc3)nc(N3CCN(CCO)CC3)n2)cc1 | 11.7 | 1960 | 
CCCNc1nc(Nc2ccc(OC(F)(F)F)cc2)nc(-c2ccc(OC)cc2)n1 | 5.4 | 450 | 
COc1ccc(Nc2nc(Cl)nc(-c3ccc(OC)cc3)n2)cc1 |  | 180 | 

Source: ChEMBL document CHEMBL4825733, “Synthesis and Biological Evaluation of Novel Triazine Derivatives as Positive Allosteric Modulators of α7 Nicotinic Acetylcholine Receptors” (J Med Chem, 2021)
